{"source": "patent US20100256105A1", "about": "“NOVEL COMPOUNDS” (AstraZeneca R&D, priority 2009, published 2010)"}
{"target": "T1, recombinant human GR (Homo sapiens, UniProt P04150)", "T1 construct": "purchased Panvera/Invitrogen P2812 (kit P2893)", "T1 sequence (P04150 1-777)": "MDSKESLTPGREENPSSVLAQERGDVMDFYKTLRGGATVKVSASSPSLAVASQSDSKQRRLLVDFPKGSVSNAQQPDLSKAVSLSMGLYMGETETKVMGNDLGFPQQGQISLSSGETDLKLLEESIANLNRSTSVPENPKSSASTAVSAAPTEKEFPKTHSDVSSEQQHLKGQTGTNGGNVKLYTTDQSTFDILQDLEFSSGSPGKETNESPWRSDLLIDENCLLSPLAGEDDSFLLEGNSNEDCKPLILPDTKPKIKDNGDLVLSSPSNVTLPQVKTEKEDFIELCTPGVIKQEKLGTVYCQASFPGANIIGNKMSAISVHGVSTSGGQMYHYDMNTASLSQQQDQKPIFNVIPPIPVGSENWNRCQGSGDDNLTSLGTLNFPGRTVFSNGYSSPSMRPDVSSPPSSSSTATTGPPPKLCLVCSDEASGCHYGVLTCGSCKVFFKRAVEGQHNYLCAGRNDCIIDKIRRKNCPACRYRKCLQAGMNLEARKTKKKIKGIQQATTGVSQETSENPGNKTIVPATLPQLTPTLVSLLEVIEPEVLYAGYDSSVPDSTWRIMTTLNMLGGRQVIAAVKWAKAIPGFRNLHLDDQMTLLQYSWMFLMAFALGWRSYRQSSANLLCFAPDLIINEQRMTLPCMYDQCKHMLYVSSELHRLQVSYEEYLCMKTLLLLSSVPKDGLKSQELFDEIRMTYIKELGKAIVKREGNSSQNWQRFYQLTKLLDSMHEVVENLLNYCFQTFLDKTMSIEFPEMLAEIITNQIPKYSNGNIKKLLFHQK", "experiment": "Human Glucocorticoid Receptor (GR) Assay, fluorescence polarization", "settings": "GS Red tracer, 2 hours at room temperature, 100% control 10 μM Dexamethasone, read-out: Inhibition of GR binding, IC50", "protocol": "Human Glucocorticoid Receptor (GR) Assay The assay is based on a commercial kit from Panvera/Invitrogen (Part number P2893). The assay technology is fluorescence polarization. The kit utilises recombinant human GR (Panvera, Part number P2812), a Fluoromone™ labelled tracer (GS Red, Panvera, Part number P2894) and a Stabilizing Peptide 10× (Panvera, Part number P2815). The GR and Stabilizing Peptide reagents are stored at −70° C. while the GS Red is stored at −20° C. Also included in the kit are 1M DTT (Panvera, Part number P2325, stored at −20° C.) and GR Screening buffer 10× (Panvera, Part number P2814, stored at −70° C. initially but once thawed stored at room temperature). Avoid repeated freeze/thaws for all reagents. The GR Screening buffer 10× comprises 100 mM potassium phosphate, 200 mM sodium molybdate, 1 mM EDTA and 20% DMSO. Test compounds (1 μL) and controls (1 μL) in 100% DMSO were added to black polystyrene 384-well plates (Greiner low volume black flat-bottom, part number 784076). 0% control was 100% DMSO and 100% control was 10 μM Dexamethasone. Background solution (8 μL; assay buffer 10×, Stabilizing Peptide, DTT and ice cold MQ water) was added to the background wells. GS Red solution (7 μL; assay buffer 10×, Stabilizing Peptide, DTT, GS Red and ice cold water) was added to all wells except background wells. GR solution (7 μL; assay buffer 10×, Stabilizing Peptide, DTT, GR and ice cold water) was added to all wells. The plate was sealed and incubated in a dark at room temperature for 2 hours. The plate was read in an Analyst plate reader (LJL Biosystems/Molecular Devices Corporation) or other similar plate reader capable of recording fluorescence polarization (excitation wavelength 530 nm, emission wavelength 590 nm and a dichroic mirror at 561 nm).", "units": {"IC50": "nM"}}
{"smiles": "COCC(=O)O[C@]1(C(=O)SCC#N)CC[C@H]2[C@@H]3C=C(C)C4=Cc5c(cnn5-c5ccc(F)nc5)C[C@]4(C)[C@H]3[C@@H](O)C[C@@]21C", "note": "[Example 1, (1R,3aS,3bS,10aR,10bS,11S,12aS)-1-{[(Cyanomethyl)sulfanyl]carbonyl}-7-(6-fluoropyridin-3-yl)-11-hydroxy-5,10a,12a-trimethyl-1,2,3,3a,3b,7,10,10a,10b,-11,12,12a-dodecahydrocyclopenta[5,6]naphtho[1,2-f]indazol-1-yl methoxyacetate]", "IC50": 2.3}
{"smiles": "CCC(=O)O[C@]1(C(=O)SCC#N)CC[C@H]2[C@@H]3C=C(C)C4=Cc5c(cnn5-c5ccc(F)nc5)C[C@]4(C)[C@H]3[C@@H](O)C[C@@]21C", "note": "[Example 2, (1R,3aS,3bS,10aR,10bS,11S,12aS)-1-{[(Cyanomethyl)sulfanyl]carbonyl}-7-(6-fluoropyridin-3-yl)-11-hydroxy-5,10a,12a-trimethyl-1,2,3,3a,3b,7,10,10a,10b,-11,12,12a-dodecahydrocyclopenta[5,6]naphtho[1,2-f]indazol-1-yl propanoate]", "IC50": 2.1}
{"smiles": "CCC(=O)O[C@]1(C(=O)SCF)CC[C@H]2[C@@H]3C=CC4=Cc5c(cnn5-c5ccc(F)nc5)C[C@]4(C)[C@H]3[C@@H](O)C[C@@]21C", "note": "[Example 3, (1R,3aS,3bS,10aR,10bS,11S,12aS)-1-{[(Fluoromethyl)sulfanyl]carbonyl}-7-(6-fluoropyridin-3-yl)-11-hydroxy-10a,12a-dimethyl-1,2,3,3a,3b,7,10,10a,10b,11,12,12a-dodecahydrocyclopenta[5,6]naphtho[1,2-f]indazol-1-ylpropanoate]", "IC50": 1.4}
{"smiles": "COCC(=O)O[C@]1(C(=O)SCF)CC[C@H]2[C@@H]3C=CC4=Cc5c(cnn5-c5ccc(F)nc5)C[C@]4(C)[C@H]3[C@@H](O)C[C@@]21C", "note": "[Example 4, (1R,3aS,3bS,10aR,10bS,11S,12aS)-1-{[(Fluoromethyl)sulfanyl]carbonyl}-7-(6-fluoropyridin-3-yl)-11-hydroxy-10a,12a-dimethyl-1,2,3,3a,3b,7,10,10a,10b,11,12,12a-dodecahydrocyclopenta[5,6]naphtho[1,2-f]indazol-1-yl methoxyacetate]", "IC50": 0.8}
{"smiles": "C[C@]12Cc3cnn(-c4ccc(F)nc4)c3C=C1C=C[C@@H]1[C@@H]2[C@@H](O)C[C@@]2(C)[C@H]1CC[C@]2(OC(=O)c1cocn1)C(=O)SCF", "note": "[Example 5, (1R,3aS,3bS,10aR,10bS,11S,12aS)-1-{[(fluoromethyl)sulfanyl]carbonyl}-7-(6-fluoropyridin-3-yl)-11-hydroxy-10a,12a-dimethyl-1,2,3,3a,3b,7,10,10a,10b,11,12,12a-dodecahydrocyclopenta[5,6]naphtho [1,2-f]indazol-1-yl 1,3-oxazole-4-carboxylate]", "IC50": 1.5}
{"smiles": "C[C@]12Cc3cnn(-c4ccc(F)nc4)c3C=C1C=C[C@@H]1[C@@H]2[C@@H](O)C[C@@]2(C)[C@H]1CC[C@]2(OC(=O)c1cocn1)C(=O)SCC#N", "note": "[Example 6, (1R,3aS,3bS,10aR,10bS,11S,12aS)-1-{[cyanomethyl)sulfanyl]carbonyl}-7-(6-fluoropyridin-3-yl)-11-hydroxy-10a,12a-dimethyl-1,2,3,3a,3b,7,10,10a,10b,11,12,12a-dodecahydrocyclopenta[5,6]naphtho [1,2-f]indazol-1-yl 1,3-oxazole-4-carboxylate]", "IC50": 1.8}
{"smiles": "COCC(=O)O[C@]1(C(=O)SCC#N)CC[C@H]2[C@@H]3C=CC4=Cc5c(cnn5-c5ccc(F)nc5)C[C@]4(C)[C@H]3[C@@H](O)C[C@@]21C", "note": "[Example 7, (1R,3aS,3bS,10aR,10bS,11S,12aS)-1-{[(cyanomethyl)sulfanyl]carbonyl}-7-(6-fluoropyridin-3-yl)-11-hydroxy-10a,12a-dimethyl-1,2,3,3a,3b,7,10,10a,10b,11,12,12a-dodecahydrocyclopenta[5,6]naphtho [1,2-f]indazol-1-yl methoxyacetate]", "IC50": 0.87}
{"smiles": "C[C@]12Cc3cnn(-c4ccc(F)nc4)c3C=C1C=C[C@@H]1[C@@H]2[C@@H](O)C[C@@]2(C)[C@H]1CC[C@]2(OC(=O)C1CC1)C(=O)SCF", "note": "[Example 8, (1R,3aS,3bS,10aR,10bS,11S,12aS)-1-{[(fluoromethyl)sulfanyl]carbonyl}-7-(6-fluoropyridin-3-yl)-11-hydroxy-10a,12a-dimethyl-1,2,3,3a,3b,7,10,10a,10b,11,12,12a-dodecahydrocyclopenta[5,6]naphtho [1,2-f]indazol-1-yl cyclopropanecarboxylate]", "IC50": 1.4}
{"smiles": "C[C@]12Cc3cnn(-c4ccc(F)nc4)c3C=C1C=C[C@@H]1[C@@H]2[C@@H](O)C[C@@]2(C)[C@H]1CC[C@]2(OC(=O)C1CC1)C(=O)SCC#N", "note": "[Example 9, (1R,3aS,3bS,10aR,10bS,11S,12aS)-1-{[(cyanomethyl)sulfanyl]carbonyl}-7-(6-fluoropyridin-3-yl)-11-hydroxy-10a,12a-dimethyl-1,2,3,3a,3b,7,- 10,10a,10b,11,12,12a-dodecahydro-cyclopenta[5,6]naphtho[1,2-f]indazol-1-yl cyclopropanecarboxylate]", "IC50": 1}
{"smiles": "CCC(=O)O[C@]1(C(=O)SCC#N)CC[C@H]2[C@@H]3C=CC4=Cc5c(cnn5-c5ccc(F)nc5)C[C@]4(C)[C@H]3[C@@H](O)C[C@@]21C", "note": "[Example 10, (1R,3aS,3bS,10aR,10bS,11S,12aS)-1-{[(cyanomethyl)sulfanyl]carbonyl}-7-(6-fluoropyridin-3-yl)-11-hydroxy-10a,12a-dimethyl-1,2,3,3a,3b,7,10,10a,10b,11,12,12a-dodecahydrocyclopenta[5,6]naphtho [1,2-f]indazol-1-yl propanoate]", "IC50": 0.83}
{"smiles": "CCC(=O)O[C@]1(C(=O)SCF)CC[C@H]2[C@@H]3C=C(C)C4=Cc5c(cnn5-c5ccc(F)nc5)C[C@]4(C)[C@H]3[C@@H](O)C[C@@]21C", "note": "[Example 11, (1R,3aS,3bS,10aR,10bS,11S,12aS)-1-{[(fluoromethyl)sulfanyl]carbonyl}-7-(6-fluoropyridin-3-yl)-11-hydroxy-5,10a,12a-trimethyl-1,2,3,3a,3b,7,10,10a,10b,11,12,12a-dodecahydrocyclopenta[5,6]naphtho [1,2-f]indazol-1-yl propanoate]", "IC50": 3.6}
{"smiles": "CC1=C[C@@H]2[C@H]([C@@H](O)C[C@@]3(C)[C@H]2CC[C@]3(OC(=O)C2CC2)C(=O)SCF)[C@@]2(C)Cc3cnn(-c4ccc(F)nc4)c3C=C12", "note": "[Example 12, (1R,3aS,3bS,10aR,10bS,11S,12aS)-1-{[(fluoromethyl)sulfanyl]carbonyl}-7-(6-fluoropyridin-3-yl)-11-hydroxy-5,10a,12a-trimethyl-1,2,3,3a,3b,7,- 10,10a,10b,11,12,12a-dodecahydro-cyclopenta[5,6]naphtho[1,2-f]indazol-1-yl cyclopropanecarboxylate]", "IC50": 1.6}
{"smiles": "CC1=C[C@@H]2[C@H]([C@@H](O)C[C@@]3(C)[C@H]2CC[C@]3(OC(=O)C2CC2)C(=O)SCC#N)[C@@]2(C)Cc3cnn(-c4ccc(F)nc4)c3C=C12", "note": "[Example 13, (1R,3aS,3bS,10aR,10bS,11S,12aS)-1-{[cyanomethyl)sulfanyl]carbonyl}-7-(6-fluoropyridin-3-yl)-11-hydroxy-5,10a,12a-trimethyl-1,2,3,3a,3b,7,10,10a,10b,11,12,12a-dodecahydrocyclopenta[5,6]naphtho [1,2-f]indazol-1-yl cyclopropanecarboxylate]", "IC50": 1.5}
